# Test results published in ChEMBL document CHEMBL3885881, “DrugMatrix”.
# Species: Rattus norvegicus
# Assay: DrugMatrix - Regimen: Daily Repeat
# Format: toxicity, organism-based, Sprague-Dawley
# Set-up: regimen Daily Repeat, gender Male, age 6-8 weeks
# Settings: in vivo, po, route oral GAVAGE, vehicle 100 % WATER; for ABSOLUTE BASOPHIL / ABSOLUTE EOSINOPHIL / ABSOLUTE LYMPHOCYTE / ABSOLUTE MONOCYTE / ABSOLUTE SEGMENTED NEUTROPHIL / BASOPHIL / EOSINOPHIL / ERYTHROCYTE COUNT / HEMATOCRIT / HEMOGLOBIN / LEUKOCYTE COUNT / LYMPHOCYTE / MEAN CORPUSCULAR HEMOGLOBIN / MEAN CORPUSCULAR HEMOGLOBIN CONCENTRATION / MEAN CORPUSCULAR VOLUME / MONOCYTE / NEUTROPHIL / NUCLEATED RED BLOOD CELLS / PLATELET COUNT: tissue Blood; for ALANINE AMINOTRANSFERASE / ALBUMIN / ALKALINE PHOSPHATASE / ASPARTATE AMINOTRANSFERASE / BLOOD UREA NITROGEN / CARBON DIOXIDE / CHLORIDE / CHOLESTEROL / CREATINE PHOSPHOKINASE / CREATININE / GLUCOSE / LACTATE DEHYDROGENASE / LIPASE / PHOSPHORUS / POTASSIUM / SODIUM / TOTAL BILIRUBIN / TOTAL PROTEIN / URIC ACID: tissue Plasma
# [1] = 500 mg/kg, 120 h, dose level Low, time 5 day
# [2] = 2000 mg/kg, 72 h, dose level High, time 3 day
# [3] = 2000 mg/kg, 120 h, dose level High, time 5 day
structure (smiles),measurement,setting,value
NCCCCCC(=O)O [AMINOCAPROIC ACID],ABSOLUTE BASOPHIL,[1],0 CELLS/uL
same,ABSOLUTE EOSINOPHIL,[1],0 CELLS/uL
same,ABSOLUTE LYMPHOCYTE,[1],13712 CELLS/uL
same,ABSOLUTE MONOCYTE,[1],316 CELLS/uL
same,ABSOLUTE SEGMENTED NEUTROPHIL,[1],872 CELLS/uL
same,BASOPHIL,[1],0%
same,EOSINOPHIL,[1],0%
same,ERYTHROCYTE COUNT,[1],5.42 x10E6/uL
same,HEMATOCRIT,[1],34.37%
same,HEMOGLOBIN,[1],13.87 G/DL
same,LEUKOCYTE COUNT,[1],14.9 x10E3/uL
same,LYMPHOCYTE,[1],92.33%
same,MEAN CORPUSCULAR HEMOGLOBIN,[1],25.67 pg
same,MEAN CORPUSCULAR HEMOGLOBIN CONCENTRATION,[1],40.37 G/DL
same,MEAN CORPUSCULAR VOLUME,[1],63.53 fL
same,MONOCYTE,[1],2%
same,NEUTROPHIL,[1],5.67%
same,NUCLEATED RED BLOOD CELLS,[1],0 /100WBC
same,PLATELET COUNT,[1],1257.67 x10E3/uL
same,ALANINE AMINOTRANSFERASE,[1],51.33 u/L
same,ALBUMIN,[1],4.4 G/DL
same,ALKALINE PHOSPHATASE,[1],417.33 u/L
same,ASPARTATE AMINOTRANSFERASE,[1],75.67 u/L
same,BLOOD UREA NITROGEN,[1],15.33 mg/dL
same,CARBON DIOXIDE,[1],26.67 mmol/L
same,CHLORIDE,[1],101.67 MEQ/L
same,CHOLESTEROL,[1],72.67 mg/dL
same,CREATINE PHOSPHOKINASE,[1],253.67 u/L
same,CREATININE,[1],0.15 mg/dL
same,GLUCOSE,[1],153.33 mg/dL
same,LACTATE DEHYDROGENASE,[1],102.33 u/L
same,LIPASE,[1],9 u/L
same,PHOSPHORUS,[1],11.07 mg/dL
same,POTASSIUM,[1],6.75 MEQ/L
same,SODIUM,[1],143.73 MEQ/L
same,TOTAL BILIRUBIN,[1],0.2 mg/dL
same,TOTAL PROTEIN,[1],6.1 G/DL
same,URIC ACID,[1],1.57 mg/dL
same,ABSOLUTE BASOPHIL,[2],0 CELLS/uL
same,ABSOLUTE EOSINOPHIL,[2],99.33 CELLS/uL
same,ABSOLUTE LYMPHOCYTE,[2],12832.33 CELLS/uL
same,ABSOLUTE MONOCYTE,[2],0 CELLS/uL
same,ABSOLUTE SEGMENTED NEUTROPHIL,[2],1535 CELLS/uL
same,BASOPHIL,[2],0%
same,EOSINOPHIL,[2],0.67%
same,ERYTHROCYTE COUNT,[2],5.61 x10E6/uL
same,HEMATOCRIT,[2],36.13%
same,HEMOGLOBIN,[2],14.13 G/DL
same,LEUKOCYTE COUNT,[2],14.47 x10E3/uL
same,LYMPHOCYTE,[2],88.67%
same,MEAN CORPUSCULAR HEMOGLOBIN,[2],25.17 pg
same,MEAN CORPUSCULAR HEMOGLOBIN CONCENTRATION,[2],39.1 G/DL
same,MEAN CORPUSCULAR VOLUME,[2],64.4 fL
same,MONOCYTE,[2],0%
same,NEUTROPHIL,[2],10.67%
same,NUCLEATED RED BLOOD CELLS,[2],0.33 /100WBC
same,PLATELET COUNT,[2],1333.33 x10E3/uL
same,ALANINE AMINOTRANSFERASE,[2],41.67 u/L
same,ALBUMIN,[2],4.27 G/DL
same,ALKALINE PHOSPHATASE,[2],386.67 u/L
same,ASPARTATE AMINOTRANSFERASE,[2],89 u/L
same,BLOOD UREA NITROGEN,[2],18 mg/dL
same,CARBON DIOXIDE,[2],22.67 mmol/L
same,CHLORIDE,[2],103 MEQ/L
same,CHOLESTEROL,[2],61.33 mg/dL
same,CREATINE PHOSPHOKINASE,[2],502 u/L
same,CREATININE,[2],0.2 mg/dL
same,GLUCOSE,[2],180 mg/dL
same,LACTATE DEHYDROGENASE,[2],295 u/L
same,LIPASE,[2],11 u/L
same,PHOSPHORUS,[2],11.37 mg/dL
same,POTASSIUM,[2],5.97 MEQ/L
same,SODIUM,[2],144.2 MEQ/L
same,TOTAL BILIRUBIN,[2],0.27 mg/dL
same,TOTAL PROTEIN,[2],5.77 G/DL
same,URIC ACID,[2],1.03 mg/dL
same,ABSOLUTE BASOPHIL,[3],0 CELLS/uL
same,ABSOLUTE EOSINOPHIL,[3],109 CELLS/uL
same,ABSOLUTE LYMPHOCYTE,[3],13720 CELLS/uL
same,ABSOLUTE MONOCYTE,[3],222 CELLS/uL
same,ABSOLUTE SEGMENTED NEUTROPHIL,[3],1882.33 CELLS/uL
same,BASOPHIL,[3],0%
same,EOSINOPHIL,[3],0.67%
same,ERYTHROCYTE COUNT,[3],5.57 x10E6/uL
same,HEMATOCRIT,[3],34.6%
same,HEMOGLOBIN,[3],13.8 G/DL
same,LEUKOCYTE COUNT,[3],15.93 x10E3/uL
same,LYMPHOCYTE,[3],86.33%
same,MEAN CORPUSCULAR HEMOGLOBIN,[3],24.83 pg
same,MEAN CORPUSCULAR HEMOGLOBIN CONCENTRATION,[3],39.87 G/DL
same,MEAN CORPUSCULAR VOLUME,[3],62.2 fL
same,MONOCYTE,[3],1.33%
same,NEUTROPHIL,[3],11.67%
same,NUCLEATED RED BLOOD CELLS,[3],0 /100WBC
same,PLATELET COUNT,[3],1463.33 x10E3/uL
same,ALANINE AMINOTRANSFERASE,[3],41.67 u/L
same,ALBUMIN,[3],4.27 G/DL
same,ALKALINE PHOSPHATASE,[3],291 u/L
same,ASPARTATE AMINOTRANSFERASE,[3],77 u/L
same,BLOOD UREA NITROGEN,[3],17.67 mg/dL
same,CARBON DIOXIDE,[3],25.33 mmol/L
same,CHLORIDE,[3],101 MEQ/L
same,CHOLESTEROL,[3],60.67 mg/dL
same,CREATINE PHOSPHOKINASE,[3],281 u/L
same,CREATININE,[3],0.15 mg/dL
same,GLUCOSE,[3],157.33 mg/dL
same,LACTATE DEHYDROGENASE,[3],298.67 u/L
same,LIPASE,[3],9.33 u/L
same,PHOSPHORUS,[3],10.73 mg/dL
same,POTASSIUM,[3],6.02 MEQ/L
same,SODIUM,[3],141.63 MEQ/L
same,TOTAL BILIRUBIN,[3],0.17 mg/dL
same,TOTAL PROTEIN,[3],6.07 G/DL
same,URIC ACID,[3],0.8 mg/dL
